Peptide text beside a SMILES is read from it.
How the values were obtained:
3T3-L1 Adipocytes = assay: Free fatty acid levels in cultured mouse 3T3-L1 adipocytes, isoproterenol stimulated (Example 2); format: cell-based; conditions: test peptides 25 μM; isoproterenol 1 nM
Protocol: Mouse 3T3-L1 cells were seeded at a density between 1,000-20,000 cells per well on 96-well, 48-well, or 24-well plates in Pre-adipocyte Medium (Zen-Bio, Durham, N.C.) and grown to confluence at 37° C. in a humidified atmosphere of 5% CO2/95% air. Two days after confluence, cells were placed in Adipocyte Differentiation Medium (Zen-Bio, Durham, N.C.) and cultured for three additional days at 37° C. in a humidified atmosphere of 5% CO2/95% air. The culture media was then replaced with Adipocyte Maintenance Medium (Zen-Bio) and the cells were maintained for an additional 9-14 days at 37° C. in a humidified atmosphere of 5% CO2/95% air with partial medium replacement every other day. Following 12-17 days of differentiation, test peptides were added at a final concentration of 25 μM and incubated for 18-20 hours in Adipocyte Maintenance Medium at 37° C. in a humidified atmosphere of 5% CO2/95%. After 18-20 hours, the media was exchanged with fresh Adipocyte Maintenance Medium containing test peptides and incubated for 1 h at 37° C. in a humidified atmosphere of 5% CO2/95%. After 1 h media was exchanged with Assay Buffer (Zen-Bio) containing isoproterenol (1 nM) (added to all samples except untreated controls) and the test peptides. Cells were incubated for a further 3 hours at 37° C. in a humidified atmosphere of 5% CO2/95%. Free fatty acid concentrations in the media were determined using a Free Fatty Acid Assay Kit (Zen-Bio) according to the manufacturer's instructions using a plate reader (540 nm).
Absorbance values were corrected for untreated background and expressed relative to isoproterenol treated cells. Treatment with isoproterenol (1 nM) alone was used as the free fatty acid level stimulatory control. The relative standard deviation of the isoproterenol control was <10%. […] Free fatty acid levels for insulin (100 nM) treatment were <5% of the isoproterenol control value.

[1] = Stability in mouse plasma, peptides 10 uM (Example 15); format: in vitro ADME; conditions: mouse plasma 37° C., peptide 10 uM; for remaining at 0.25 h, 10 uM / remaining at 0.5 h, 10 uM / remaining at 1 h, 10 uM / remaining at 2 h, 10 uM / remaining at 3 h, 10 uM: pooled mouse plasma; for remaining at 0.25 h, 10 uM: 15 min, read-out: % Remaining at Each Time Point: 15 min; for remaining at 0.5 h, 10 uM: 30 min, read-out: % Remaining at Each Time Point: 30 min; for remaining at 1 h, 10 uM: 60 min, read-out: % Remaining at Each Time Point: 60 min; for remaining at 2 h, 10 uM: 120 min, read-out: % Remaining at Each Time Point: 120 min; for remaining at 3 h, 10 uM: 180 min, read-out: % Remaining at Each Time Point: 180 min
Protocol: Peptides (10 uM) were incubated in pooled mouse plasma at 37° C. and samples were removed and immediately analyzed for the concentration of intact peptide by LC/MS/MS over the course of 3 hours. The percent of peptide remaining in plasma at each time point was calculated relative to the initial peak area (Table 13).

% Remaining at Each Time Point: 0 min [1] [%]	remaining at 0.25 h, 10 uM [1] [%]	remaining at 0.5 h, 10 uM [1] [%]	remaining at 1 h, 10 uM [1] [%]	remaining at 2 h, 10 uM [1] [%]	remaining at 3 h, 10 uM [1] [%]	Compound	Free Fatty Acid Levels in 3T3-L1 Adipocytes Expressed as a Percent of Isoproterenol Control: Percent of Control Value (3T3-L1 Adipocytes) [%]
						CC[C@H](C)[C@H](NC(=O)[C@H](Cc1ccc(O)cc1)NC(=O)[C@@H](C)NC(=O)[C@H](CCSC)NC(=O)[C@H](CCC(=O)O)NC(=O)[C@H](CCC(N)=O)NC(=O)[C@H](Cc1c[nH]c2ccccc12)NC(=O)[C@H](CCCNC(=N)N)NC(=O)[C@H](CCSC)NC(C)=O)C(=O)N[C@@H](Cc1ccccc1)C(=O)N[C@@H](Cc1ccc(O)cc1)C(=O)N1CCC[C@H]1C(=O)N[C@@H](CCCNC(=N)N)C(=O)N[C@@H](CCCCN)C(=O)N[C@@H](CC(C)C)C(=O)N[C@@H](CCCNC(=N)N)C(N)=O [compound 88] (HELM PEPTIDE1{[ac].M.R.W.Q.E.M.[dA].Y.I.F.Y.P.R.K.L.R.[am]}$$$$V2.0)	75.1
						CC[C@H](C)[C@H](NC(=O)[C@H](Cc1ccc(O)cc1)NC(=O)CNC(=O)[C@H](CCSC)NC(=O)[C@H](CCC(=O)O)NC(=O)[C@H](CCC(N)=O)NC(=O)[C@H](Cc1c[nH]c2ccccc12)NC(=O)C(C)(C)NC(=O)[C@@H](N)CCSC)C(=O)N[C@@H](Cc1ccccc1)C(=O)N[C@@H](Cc1ccc(O)cc1)C(=O)N1CCC[C@H]1C(=O)N[C@@H](CCCNC(=N)N)C(=O)N[C@@H](CCCCN)C(=O)N[C@@H](CC(C)C)C(=O)N[C@@H](CCCNC(=N)N)C(=O)O [compound 118] (HELM PEPTIDE1{M.[Aib].W.Q.E.M.G.Y.I.F.Y.P.R.K.L.R}$$$$V2.0)	84.6
						CC[C@H](C)[C@H](NC(=O)[C@H](Cc1ccc(O)cc1)NC(=O)CNC(=O)[C@H](CCSC)NC(=O)[C@H](CCC(=O)O)NC(=O)[C@H](CCC(N)=O)NC(=O)[C@H](Cc1c[nH]c2ccccc12)NC(=O)C(C)(C)NC(=O)[C@@H](N)CCSC)C(=O)N[C@@H](Cc1ccccc1)C(=O)N[C@@H](Cc1ccc(O)cc1)C(=O)N1CCC[C@H]1C(=O)N[C@@H](CCCNC(=N)N)C(=O)N[C@@H](CCCCN)C(=O)N[C@@H](CC(C)C)C(=O)N[C@@H](CCCNC(=N)N)C(N)=O [compound 119] (HELM PEPTIDE1{M.[Aib].W.Q.E.M.G.Y.I.F.Y.P.R.K.L.R.[am]}$$$$V2.0)	89.2
						CC[C@H](C)[C@H](NC(=O)[C@H](Cc1ccc(O)cc1)NC(=O)CNC(=O)[C@H](CCSC)NC(=O)[C@H](CCC(=O)O)NC(=O)[C@H](CCC(N)=O)NC(=O)[C@H](Cc1c[nH]c2ccccc12)NC(=O)C(C)(C)NC(=O)[C@H](CCSC)NC(C)=O)C(=O)N[C@@H](Cc1ccccc1)C(=O)N[C@@H](Cc1ccc(O)cc1)C(=O)N1CCC[C@H]1C(=O)N[C@@H](CCCNC(=N)N)C(=O)N[C@@H](CCCCN)C(=O)N[C@@H](CC(C)C)C(=O)N[C@@H](CCCNC(=N)N)C(=O)O [compound 120] (HELM PEPTIDE1{[ac].M.[Aib].W.Q.E.M.G.Y.I.F.Y.P.R.K.L.R}$$$$V2.0)	86.0
						CC[C@H](C)[C@H](NC(=O)[C@H](Cc1ccc(O)cc1)NC(=O)CNC(=O)[C@H](CCSC)NC(=O)[C@H](CCC(=O)O)NC(=O)[C@H](CCC(N)=O)NC(=O)[C@H](Cc1c[nH]c2ccccc12)NC(=O)C(C)(C)NC(=O)[C@H](CCSC)NC(C)=O)C(=O)N[C@@H](Cc1ccccc1)C(=O)N[C@@H](Cc1ccc(O)cc1)C(=O)N1CCC[C@H]1C(=O)N[C@@H](CCCNC(=N)N)C(=O)N[C@@H](CCCCN)C(=O)N[C@@H](CC(C)C)C(=O)N[C@@H](CCCNC(=N)N)C(N)=O [compound 121] (HELM PEPTIDE1{[ac].M.[Aib].W.Q.E.M.G.Y.I.F.Y.P.R.K.L.R.[am]}$$$$V2.0)	89.8
						CC[C@H](C)[C@H](NC(=O)[C@H](Cc1ccc(O)cc1)NC(=O)CNC(=O)[C@H](CCSC)NC(=O)[C@H](CCC(=O)O)NC(=O)[C@H](CCC(N)=O)NC(=O)[C@H](Cc1c[nH]c2ccccc12)NC(=O)[C@H](CCCNC(=N)N)NC(=O)[C@@H](C)N)C(=O)N[C@@H](Cc1ccccc1)C(=O)N[C@@H](Cc1ccc(O)cc1)C(=O)N1CCC[C@H]1C(=O)N[C@@H](CCCNC(=N)N)C(=O)N[C@@H](CCCCN)C(=O)N[C@@H](CC(C)C)C(=O)N[C@@H](CCCNC(=N)N)C(=O)O [compound 136] (HELM PEPTIDE1{[dA].R.W.Q.E.M.G.Y.I.F.Y.P.R.K.L.R}$$$$V2.0)	44.2
						CC[C@H](C)[C@H](NC(=O)[C@H](Cc1ccc(O)cc1)NC(=O)CNC(=O)[C@H](CCSC)NC(=O)[C@H](CCC(=O)O)NC(=O)[C@H](CCC(N)=O)NC(=O)[C@H](Cc1c[nH]c2ccccc12)NC(=O)[C@@H](C)NC(=O)[C@@H](N)CCSC)C(=O)N[C@@H](Cc1ccccc1)C(=O)N[C@@H](Cc1ccc(O)cc1)C(=O)N1CCC[C@H]1C(=O)N[C@@H](CCCNC(=N)N)C(=O)N[C@@H](CCCCN)C(=O)N[C@@H](CC(C)C)C(=O)N[C@@H](CCCNC(=N)N)C(=O)O [compound 137] (HELM PEPTIDE1{M.[dA].W.Q.E.M.G.Y.I.F.Y.P.R.K.L.R}$$$$V2.0)	91.4
						CC[C@H](C)[C@H](NC(=O)[C@H](Cc1ccc(O)cc1)NC(=O)CNC(=O)[C@H](CCSC)NC(=O)[C@H](CCC(=O)O)NC(=O)[C@H](CCC(N)=O)NC(=O)[C@@H](C)NC(=O)[C@H](CCCNC(=N)N)NC(=O)[C@@H](N)CCSC)C(=O)N[C@@H](Cc1ccccc1)C(=O)N[C@@H](Cc1ccc(O)cc1)C(=O)N1CCC[C@H]1C(=O)N[C@@H](CCCNC(=N)N)C(=O)N[C@@H](CCCCN)C(=O)N[C@@H](CC(C)C)C(=O)N[C@@H](CCCNC(=N)N)C(=O)O [compound 138] (HELM PEPTIDE1{M.R.[dA].Q.E.M.G.Y.I.F.Y.P.R.K.L.R}$$$$V2.0)	71.5
100	85	73.4	69.3	68.1	73.7	H-RWQEENYIAEPR-OH [compound 261]	
100	82.2	65.2	42.2	32.8	34.8	H-RWQEENYIFEPR-OH [compound 259]	
100	63.2	53.5	36.3	30.3	21.7	H-RWQEENYIFYPR-OH [compound 258]	
100	80.7	68.6	46.9	40.5	30.8	H-RWQEEQYIFYPR-OH [compound 263]	
100	78.3	62.6	40.9	28.7	19.6	H-RWQEMQYIAYPR-OH [compound 255]	
100	52.4	33.3	30.3	24	18.1	H-RWQEMQYIFEPR-OH [compound 254]	

— US11753445B2, “Therapeutic peptides” (COHBAR, INC., priority 2016, dated 2023)
